Data from BigSolDB 2.1.

CC(C(=O)O)c1ccc2c(c1)CC(=O)c1ccccc1S2 (stereo not drawn)
solubility (mole fraction)
Conditions	278.15 K	283.15 K	288.15 K	293.15 K	298.15 K	303.15 K	308.15 K	313.15 K	318.15 K	323.15 K
in 1,4-dioxane	–	–	0.0923	0.103	0.114	0.127	0.142	0.157	0.173	0.19
in 2-ethoxyethanol	0.0373	0.0458	0.0518	0.0596	0.0677	0.0779	0.0911	0.106	0.12	0.136
in 2-methoxyethanol	0.0278	0.036	0.0437	0.0516	0.0619	0.074	0.0878	0.102	0.119	0.138
in ethanol	0.00265	0.00396	0.00522	0.0071	0.00956	0.012	0.0166	0.0222	0.03	0.0418
in ethyl acetate	0.00812	0.00951	0.0112	0.0131	0.0154	0.0176	0.0216	0.0256	0.0304	0.0362
